The source of these data is publication PMC5980995, “An allostatic mechanism for M2 pyruvate kinase as an amino-acid sensor” (Biochemical Journal, 2018).

Assay [1] has as its target T1, M2PYK (Homo sapiens, UniProt P14618).
T1 construct: and N-terminal domain (blue, residues 13–43. Residues 1–12, as well as additional residues from the His6-tagged construct); made in house; host or cells: Escherichia coli BL21(DE3), pET28a
Description: X-ray co-crystal structures of M2PYK with amino acids. The settings on record: wild-type M2PYK co-crystallised with the amino acid. As to the method: Single crystals of M2PYK were obtained at 17°C by vapour diffusion using the hanging-drop technique. The drops were formed by mixing 1.5 µl of wild-type M2PYK (20 mg/ml) solution containing ligands with 1.5 µl of reservoir solution (composed of 11–16% PEG 3350, 100 mM sodium cacodylate, 50 mM MgCl2, and 100 mM KCl). […] The pH for obtaining optimal crystals was 7.2–7.8. Before data collection, crystals were dipped in a freezing solution consisting of reservoir solution supplemented with the same concentration of ligands as in the original solution, as well as up to 35% PEG 3350, which eliminated the appearance of ice rings. Diffraction data were collected at the Diamond synchrotron radiation facility in Oxfordshire, U.K. on beamline I03 (for the M2PYK/Ala structure), I04-1 (for the M2PYK/Phe and the M2PYK/Trp structures), and I24 (for the M2PYK/Ser structure). All datasets were obtained from a single crystal flash-frozen in liquid nitrogen. A more detailed description and discussion of the crystallisation trials is in the Supplementary Material.
All four M2PYK structures were solved by molecular replacement using the program PHASER [40]. A monomer (Chain A) from the previously determined tetrameric structure of M2PYK (in R-state, PDB ID: 4B2D) served as the search model for the M2PYK/Ser structure. Chain A of a different M2PYK structure (in T-state, PDB ID: 4FXJ) was used as the search model for the M2PYK/Phe, M2PYK/Ala, and M2PYK/Trp structures. There were clear molecular replacement solutions for all structures. The resulting models were then subjected to 10 cycles of rigid body refinement using the program REFMAC [41]. Afterwards, manual changes were made to models to adjust side chain conformations and to add additional residues to the N terminus using COOT [42]. The models were then subjected to several rounds of translation libration screw refinement and restrained refinement, and ligand molecules were added where clear unbiased Fo–Fc electron density was observed. Water molecules were added to the model using COOT, and after several rounds of restrained refinement, R/Rfree values converged.

In assay [2] the target is T1, M2PYK. The experiment in a line: Enzyme kinetics of M2PYK for PEP with saturating ADP in presence of amino acids. The class given is biochemical. The settings on record: kinetic curves at different inhibitor concentrations. The procedure: For the determination of kinetics of M2PYK in the absence/presence of amino acid modulators, enzymatic activity assays were performed as follows. A 5 µl aliquot of 0.002 mg/ml M2PYK in PBS-CM was incubated with different concentrations of amino acids in PBS-CM supplemented with 1 mM dithiothreitol at 37°C at pH 7.4 for 10 min. Then, the same volume of assay buffer [PBS-CM supplemented with 10 mM MgCl2, 100 mM KCl, 1 mM NADH, 40 µmol/min ml LDH, as well as saturating ADP (4 mM) and titrated substrate PEP (0.15–10 mM)] was added. […] For these uncompetitive inhibitors the Ki values were calculated to be equal to IC50/2.
Values of the kinetic parameters (Vmax, K0.5(PEP), and nH) were determined by fitting the equation below to the data. V=Vmax×[PEP]^nH/K0.5nH+[PEP]^nH The Lineweaver–Burk plots were fit using the equation below: Y=K0.5nH+(1/x)^nH/Vmax×(1/x)^nH The Berkley Madonna software (http://www.berkeleymadonna.com/) was used to model approximate proportions of monomer and tetramer M2PYK at given total protein concentrations. The calculation was based on a simplified tetramer [T] monomer [M] equilibrium: [T]⇌[M]+[M]+[M]+[M]withKd=[M]^4/[T] […] The association rate constant was scaled to give a Kd of 0.9 µM, which was estimated from analytical gel chromatography results.
The kinetic curves are shown in Figure 4 and Supplementary Figure S4.

Assay [3] deals with T1, M2PYK. Description: ELISA with anti-M2PYK antibody binding the C–C interface (monomer–tetramer equilibrium). The conditions noted are these: 10 mM amino acid; 0.0039–2.5 µg/ml M2PYK; 1 h, pH 7.4, room temperature. From the text:
For the production of specific antibodies, a peptide immunogen (Supplementary Figure S1) specific for M2PYK was covalently conjugated with the carrier protein BSA, and injected into Balb/c female mice (6–7 weeks) at 2-week intervals. A mouse showing best selectivity for M2PYK was chosen as a spleen donor. After the production of a hybridoma, a cell line secreting a specific monoclonal antibody was screened and expanded. The specific monoclonal antibody against M2PYK was identified, purified and conjugated with horseradish peroxidase (HRP) for further ELISAs.
A stock solution of anti-His-tag antibody in carbonate buffer (pH 9.6) was coated onto wells at 50 µl/well at 4°C overnight. The wells were then blocked with 100 µl/well of PBS/Tween 20/3% BSA for 1 h at room temperature. Titrated M2PYK (2.5–0.0039 µg/ml) was incubated with or without ligands (10 mM for all amino acids and 1 mM for FBP) in PBS/Tween 20/3% BSA at room temperature for 1 h. Then, 100 µl of the solution was added to each prepared well for an incubation of 1 h. Afterwards, a 100 µl aliquot of PBS/Tween 20/3% BSA containing 4 µg/ml HRP-conjugated M2PYK antibody was added to each well and incubated for 1 h at room temperature. Electrochemiluminescence solution was added at 50 µl/well to develop the luminescence, which was read immediately with a plate reader. Three washes with PBS/Tween 20/3% BSA were performed between each step.
To investigate the effect of ligand binding on monomer–tetramer equilibrium at lower protein concentrations, we developed an ELISA assay. […] As the epitope is hidden in the tetrameric form of M2PYK, antibody binding on the C–C interface of M2PYK reflects the amount of monomer/dimer but not tetramer. The ELISA tests were performed using low concentrations of His6-M1/2PYK (0.0039–2.5 µg/ml) incubated with no ligand or 10 mM of each amino acid for 1 h in PBS-CM at pH 7.4 at room temperature. The incubated solutions were added to 96-well plates precoated with anti-His-tag antibodies. HRP-conjugated M2PYK antibodies were then incubated, followed by luminescence reading.
On the technique in general: An ELISA detects its analyte on a solid surface through an enzyme-linked reagent.

Assay [4] deals with T1, M2PYK. Description: Analytical gel chromatography of M2PYK oligomerisation/dissociation. The conditions noted are these: 10 mM amino acid; 0.1 mg/ml M2PYK; PBS-CM pH 7.4, room temperature, 12 h. As to the method:
Analytical gel chromatography was performed to characterise the oligomerisation/dissociation of M2PYK in the presence/absence of different amino acids. Aliquots of 400 µl of 0.1 mg/ml purified M2PYK were incubated with or without 10 mM amino acids in PBS-CM at room temperature at pH 7.4 overnight. After the incubation, samples were loaded independently onto a Superdex 200 PC 3.2/30 gel-filtration column. Samples of 25 µl were injected, and the column flow rate was maintained at 0.1 ml/min. Protein peaks were monitored using the absorbance at both 280 and 214 nm. The retention volumes for the M2PYK peaks were the same as those identified by SEC-MALS as monomer and tetramer peaks (using the same Superdex 200 column) in our previous study.
Analytical gel chromatography was used to investigate the effects of amino acids on the oligomerisation of M2PYK. […] Dissociation studies of M2PYK using SEC-MALS [13] and ultracentrifugation show the predominant forms in solution are tetramer and monomer.

For assay [5], the target named is T1, M2PYK. Description: M2PYK activity at sub-saturating PEP and ADP: amino-acid IC50/Ki and serine versus alanine/phenylalanine competition. The settings on record: for Ki: calculated as IC50/2 (uncompetitive inhibitors), read-out: inhibitor constant (Ki) against M2PYK; for IC50: sub-saturating PEP and ADP, 0 µM serine, read-out: IC50 against M2PYK. The class given is biochemical. The procedure:
For the determination of kinetics of M2PYK in the absence/presence of amino acid modulators, enzymatic activity assays were performed as follows. A 5 µl aliquot of 0.002 mg/ml M2PYK in PBS-CM was incubated with different concentrations of amino acids in PBS-CM supplemented with 1 mM dithiothreitol at 37°C at pH 7.4 for 10 min. […] For these uncompetitive inhibitors the Ki values were calculated to be equal to IC50/2.
The decrease in absorbance at 340 nm was measured for 5 min at 37°C using a plate reader. […]

Assay [6] concerns the target T2, M1PYK (Homo sapiens, UniProt P14618).
T2 construct: made in house; host or cells: Escherichia coli BL21(DE3), pET28a
The experiment in a line: PYK activity modulator screen (LDH-coupled enzymatic activity assay). The conditions noted are these: 2.5 mM ligand, sub-saturating PEP and ADP; for inhibition of M1PYK activity: pH 7.4, 37°C, relative to no ligand. Type of assay: biochemical. As to the method:
(§1) For the identification of PYK activity modulators, enzymatic activity assays were performed as follows. A 1.9 µl aliquot of 20 mg/ml M1 or M2PYK in PBS-CM was added individually into […] of different amino acids at 5 mM in PBS-CM at pH 7.4 followed by an incubation at 37°C for 10 min. Then, the same volume of assay buffer [PBS-CM supplemented with 10 mM MgCl2, 100 mM KCl, 1 mM NADH, 40 µmol/min ml lactate dehydrogenase (LDH), as well as sub-saturating substrates PEP (1 mM) and ADP (0.8 mM)] was added into the protein solution and mixed (so the concentrations of all reagents were halved). The decrease in absorbance at 340 nm (the absorbance of NADH) was measured for 5 min at 37°C using a plate reader. PEP, ADP, LDH, NADH, FBP and all amino acids were from Sigma–Aldrich.
(§2) FBP was used as a positive control. The reaction was performed after pre-incubation in the presence of sub-saturating substrates in PBS at pH 7.4 at 37°C as described in Experimental Procedures.

Assay [7] concerns the target T1, M2PYK. The description is as above. Type of assay: biochemical. The settings on record: 2.5 mM ligand, sub-saturating PEP and ADP; for activation of M2PYK activity: pH 7.4, 37°C, relative to no ligand. The procedure:
as §1, §2

The test system of assay [8] is M2PYK. Details: method as in Chaneton et al. 2012. The settings on record: 4 nM M2PYK; ref Chaneton et al. 2012; cited from earlier work.
The subject of assay [9] is cell proliferation. Also noted: method as in PMID 23530218. The settings on record: via activation or inhibition of M2PYK; cited from earlier work.
The target of assay [10] is T1, M2PYK. Details: method as in PMID 23530218. The conditions noted are these: previously shown; cited from earlier work.

T1 sequence (P14618 whole entry, the tested form may be a part): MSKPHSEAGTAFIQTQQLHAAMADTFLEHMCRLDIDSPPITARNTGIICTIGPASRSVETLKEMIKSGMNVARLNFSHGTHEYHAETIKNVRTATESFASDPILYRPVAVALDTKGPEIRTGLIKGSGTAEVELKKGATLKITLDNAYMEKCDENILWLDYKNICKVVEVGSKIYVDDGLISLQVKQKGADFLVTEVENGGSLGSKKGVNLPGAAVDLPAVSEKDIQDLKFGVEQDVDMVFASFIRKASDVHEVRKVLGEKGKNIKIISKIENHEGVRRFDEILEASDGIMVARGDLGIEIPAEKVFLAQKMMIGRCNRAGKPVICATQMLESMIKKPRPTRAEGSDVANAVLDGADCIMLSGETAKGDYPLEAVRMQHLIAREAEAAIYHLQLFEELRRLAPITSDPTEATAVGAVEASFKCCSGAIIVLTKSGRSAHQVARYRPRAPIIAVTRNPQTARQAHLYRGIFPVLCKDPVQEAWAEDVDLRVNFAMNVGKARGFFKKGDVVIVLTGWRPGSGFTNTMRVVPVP
T2 sequence (P14618 1-531 isoform P14618-2): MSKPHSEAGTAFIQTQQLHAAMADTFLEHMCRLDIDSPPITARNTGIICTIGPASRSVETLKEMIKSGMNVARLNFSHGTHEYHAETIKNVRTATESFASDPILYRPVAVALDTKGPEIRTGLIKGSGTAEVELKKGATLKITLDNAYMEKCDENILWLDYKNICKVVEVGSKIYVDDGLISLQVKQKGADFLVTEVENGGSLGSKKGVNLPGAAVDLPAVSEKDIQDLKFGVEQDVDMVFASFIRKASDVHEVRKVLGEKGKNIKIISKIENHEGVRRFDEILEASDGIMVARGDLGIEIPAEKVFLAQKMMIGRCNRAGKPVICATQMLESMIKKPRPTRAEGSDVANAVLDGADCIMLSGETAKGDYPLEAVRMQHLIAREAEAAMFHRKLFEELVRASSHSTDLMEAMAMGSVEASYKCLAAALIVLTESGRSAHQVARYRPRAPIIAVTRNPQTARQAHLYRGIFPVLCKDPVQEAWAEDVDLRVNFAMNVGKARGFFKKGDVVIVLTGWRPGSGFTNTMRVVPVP

With `C[C@H](N)C(=O)O` [alanine, L-alanine], the “Conformation of M2PYK tetramer in co-crystal structure” value (from here on “Conformation of M2PYK tetramer”) in assay [1] is “T-state”. Also, the “mode of inhibition of M2PYK” value in assay [2] is reported as “allosteric uncompetitive inhibitors”. The “oligomeric state of M2PYK at low protein concentration” value (shortened to “oligomeric state of M2PYK”) in assay [3] was “predominantly tetrameric”. The “effect on M2PYK oligomerisation (tetramer versus monomer)” value (“effect … (tetramer versus monomer)” for short) in assay [4] is “stabilised tetramers over monomers”. In addition, in assay [5] (alanine 200–300 µM in the presence of serine ∼0.6 mM), the M2PYK activity was ~65%. Further, the M2PYK activity in assay [5] (alanine 200–300 µM, no serine) was ~10%. In assay [5], the Ki is 62 µM and the IC50 was determined as 124 µM.
For `N=C(N)NCCC[C@H](N)C(=O)O` [arginine], the “inhibition of M1PYK activity” value in assay [6] turned out to be 10%.
As to `NCC(=O)O` [glycine], the “inhibition of M1PYK activity” value in assay [6] was 10%.
Regarding `N[C@@H](Cc1c[nH]cn1)C(=O)O` [histidine], in assay [7], the “M2PYK activity normalised to activity in absence of ligands (100%)” value is listed as “higher than 120%” and the “activation of M2PYK activity” value was ~30%.
With `NCCCC[C@H](N)C(=O)O` [lysine], in assay [6], the “inhibition of M1PYK activity” value came out at 10%.
Regarding `N[C@@H](CO)C(=O)O` [serine, L-serine], the “Conformation of M2PYK tetramer” value in assay [1] is reported as “R-state”. In addition, the “oligomeric state of M2PYK” value in assay [3] is recorded as “predominantly tetrameric”. Also, the “effect … (tetramer versus monomer)” value in assay [4] is listed as “stabilised tetramers over monomers”. Also, the “effect on M2PYK activity in end-point assay” value in [8] is on record as “showed activation”. Moreover, in assay [7], the “M2PYK activity normalised to activity in absence of ligands (100%)” value was “higher than 120%” and the “activation of M2PYK activity” value is listed as ~30%.
Take `N[C@@H](Cc1c[nH]c2ccccc12)C(=O)O` [tryptophan, L-tryptophan]: the “Conformation of M2PYK tetramer” value in assay [1] was “T-state”. For the same compound, in [2], the “mode of inhibition of M2PYK” value is listed as “allosteric uncompetitive inhibitors”. In [3], the “oligomeric state of M2PYK” value was “predominantly tetrameric”. The “effect … (tetramer versus monomer)” value in [4] was “stabilised tetramers over monomers”. Further, in [5], the Ki was 222 µM and the IC50 turned out to be 445 µM.
“fructose 1,6-bisphosphate [FBP, reference compound]”: the “effect on cell proliferation” value in assay [9] is “inhibits cell proliferation”. Further, in assay [10], the “effect on M2PYK oligomerisation” value was “stabilised the tetrameric form”. The “effect on M2PYK activity in end-point assay” value in assay [8] is listed as “showed activation”. Further, in [7], the “activation of M2PYK activity” value is on record as ~40%. Moreover, the “regulatory effect on M1PYK activity” value in [6] is listed as “little or no regulatory effect”.

Usually Ki stands for the dissociation constant of the complex between target and ligand, obtained from inhibition or displacement. Usually IC50 stands for the concentration at which inhibition is half-maximal.
